Patent US10806785B2, “Immunomodulator compounds and methods of use” (Incyte Corporation, priority 2016, dated 2020)

Target: PD-1/PD-L1 (Homo sapiens (Human), UniProt Q9NZQ7)
Assay: PD-1/PD-L1 binding assay (HTRF)
Outline: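 Fc-tagged human PD-1 (25-167) and His-tagged PD-L1 (19-238), listed as […] and 10 nM final, preincubated 40 min with inhibitors in PBS pH 7.4, 0.05% Tween-20, 0.1% BSA, 1% DMSO, 25 °C. Eu anti-IgG/APC anti-His added, 60 min, 665/620 nm HTRF ratio; IC50 fitted from percent control activity.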

Sequence of PD-1/PD-L1 (Q9NZQ7 19-238): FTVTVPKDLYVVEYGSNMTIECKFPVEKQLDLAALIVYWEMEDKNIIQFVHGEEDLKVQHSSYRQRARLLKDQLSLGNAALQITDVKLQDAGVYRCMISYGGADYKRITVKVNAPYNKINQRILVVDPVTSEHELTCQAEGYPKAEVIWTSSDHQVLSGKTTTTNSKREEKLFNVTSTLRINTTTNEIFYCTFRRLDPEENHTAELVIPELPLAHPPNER

Row | Structure (SMILES) | IC50 [nM]
1 | Cc1c(NC(=O)c2nc3c(n2C)CCN(CC2(CO)CC2)C3)cccc1-c1cccc(NC(=O)c2nc3c(n2C)CCN(C)C3)c1Cl [Example 31, N-(2′-chloro-3′-(1,5-dimethyl-4,5,6,7-tetrahydro-1H-imidazo[4,5-c]pyridine-2-carboxamido)-2-methylbiphenyl-3-yl)-5-((1-(hydroxymethyl)cyclopropyl)methyl)-1-methyl-4,5,6,7-tetrahydro-1H-imidazo[4,5-c]pyridine-2-carboxamide] | ≤ 10
2 | Cc1c(NC(=O)c2nc3c(n2C)CCN(C[C@H](O)CO)C3)cccc1-c1cccc(NC(=O)c2nc3c(n2C)CCN(C)C3)c1Cl [Example 32, (S)—N-(2′-chloro-3′-(1,5-dimethyl-4,5,6,7-tetrahydro-1H-imidazo[4,5-c]pyridine-2-carboxamido)-2-methylbiphenyl-3-yl)-5-(2,3-dihydroxypropyl)-1-methyl-4,5,6,7-tetrahydro-1H-imidazo[4,5-c]pyridine-2-carboxamide] | ≤ 10
3 | Cc1c(NC(=O)c2nc3c(n2C)CCN(C2CCC(C)(C(=O)O)CC2)C3)cccc1-c1cccc(NC(=O)c2nc3c(n2C)CCN(C)C3)c1Cl (centres unmarked) [Example 35, 4-(2-(2′-chloro-3′-(1,5-dimethyl-4,5,6,7-tetrahydro-1H-imidazo[4,5-c]pyridine-2-carboxamido)-2-methylbiphenyl-3-ylcarbamoyl)-1-methyl-6,7-dihydro-1H-imidazo[4,5-c]pyridin-5(4H)-yl)-1-methylcyclohexanecarboxylic acid] | ≤ 10
4 | Cc1c(NC(=O)c2nc3c(n2C)CCN(CCCNS(C)(=O)=O)C3)cccc1-c1cccc(NC(=O)c2nc3c(n2C)CCN(C)C3)c1Cl [Example 36, N-(2-chloro-2′-methyl-3′-(1-methyl-5-(3-(methylsulfonamido)propyl)-4,5,6,7-tetrahydro-1H-imidazo[4,5-c]pyridine-2-carboxamido)biphenyl-3-yl)-1,5-dimethyl-4,5,6,7-tetrahydro-1H-imidazo[4,5-c]pyridine-2-carboxamide] | ≤ 10
5 | C[C@@H](O)CN1CCc2c(nc(C(=O)Nc3cccc(-c4cccc(NC(=O)c5nc6c(n5C)CCN(C)C6)c4C#N)c3Cl)n2C)C1 [Example 40, (R)—N-(2-chloro-2′-cyano-3′-(1,5-dimethyl-4,5,6,7-tetrahydro-1H-imidazo[4,5-c]pyridine-2-carboxamido)biphenyl-3-yl)-5-(2-hydroxypropyl)-1-methyl-4,5,6,7-tetrahydro-1H-imidazo[4,5-c]pyridine-2-carboxamide] | ≤ 10
6 | Cc1c(NC(=O)c2nc3c(n2C)CCN(C[C@H](C)O)C3)cccc1-c1cccc(NC(=O)c2nc3c(n2C)CCNC3)c1Cl [Example 41, (S)—N-(2′-chloro-2-methyl-3′-(1-methyl-4,5,6,7-tetrahydro-1H-imidazo[4,5-c]pyridine-2-carboxamido)-[1,1′-biphenyl]-3-yl)-5-(2-hydroxypropyl)-1-methyl-4,5,6,7-tetrahydro-1H-imidazo[4,5-c]pyridine-2-carboxamide] | ≤ 10
7 | Cc1c(NC(=O)c2nc3c(n2C)CCN(C[C@H](C)O)C3)cccc1-c1cccc(NC(=O)c2nc3c(n2C)CCN(CCO)C3)c1Cl [Example 42, (S)—N-(2′-chloro-3′-(5-(2-hydroxyethyl)-1-methyl-4,5,6,7-tetrahydro-1H-imidazo[4,5-c]pyridine-2-carboxamido)-2-methylbiphenyl-3-yl)-5-(2-hydroxypropyl)-1-methyl-4,5,6,7-tetrahydro-1H-imidazo[4,5-c]pyridine-2-carboxamide] | ≤ 10
8 | Cc1c(NC(=O)c2nc3c(n2C)CCN(C[C@H](C)O)C3)cccc1-c1cccc(NC(=O)c2nc3c(n2C)CCN(C2CCC2)C3)c1Cl [Example 44, (S)—N-(2-chloro-3′-(5-(2-hydroxypropyl)-1-methyl-4,5,6,7-tetrahydro-1H-imidazo[4,5-c]pyridine-2-carboxamido)-2′-methylbiphenyl-3-yl)-5-cyclobutyl-1-methyl-4,5,6,7-tetrahydro-1H-imidazo[4,5-c]pyridine-2-carboxamide] | ≤ 10
9 | Cc1c(NC(=O)c2nc3c(n2C)CCN(C[C@H](C)O)C3)cccc1-c1cccc(NC(=O)c2nc3c(n2C)CCN(C(C)C)C3)c1Cl [Example 45, (S)—N-(2-chloro-3′-(5-(2-hydroxypropyl)-1-methyl-4,5,6,7-tetrahydro-1H-imidazo[4,5-c]pyridine-2-carboxamido)-2′-methylbiphenyl-3-yl)-5-isopropyl-1-methyl-4,5,6,7-tetrahydro-1H-imidazo[4,5-c]pyridine-2-carboxamide] | ≤ 10
10 | Cc1c(NC(=O)c2nc3c(n2C)CCN(C[C@H](C)O)C3)cccc1-c1cccc(NC(=O)c2nc3c(n2C)CCN(C2CCOCC2)C3)c1Cl [Example 47, (S)—N-(2′-chloro-2-methyl-3′-(1-methyl-5-(tetrahydro-2H-pyran-4-yl)-4,5,6,7-tetrahydro-1H-imidazo[4,5-c]pyridine-2-carboxamido)biphenyl-3-yl)-5-(2-hydroxypropyl)-1-methyl-4,5,6,7-tetrahydro-1H-imidazo[4,5-c]pyridine-2-carboxamide] | ≤ 10
11 | Cc1c(NC(=O)c2cc(CN3CC[C@@H](C(=O)O)C3)cn(C)c2=O)cccc1-c1cccc(NC(=O)c2nc3c(n2C)CCN(C)C3)c1Cl [Example 49, (R)-1-((5-(2′-chloro-3′-(1,5-dimethyl-4,5,6,7-tetrahydro-1H-imidazo[4,5-c]pyridine-2-carboxamido)-2-methylbiphenyl-3-ylcarbamoyl)-1-methyl-6-oxo-1,6-dihydropyridin-3-yl)methyl)pyrrolidine-3-carboxylic acid] | ≤ 10
12 | Cc1c(NC(=O)c2cc(CN3CCCC3)cn(C)c2=O)cccc1-c1cccc(NC(=O)c2nc3c(n2C)CCN(C)C3)c1Cl [Example 50, N-(2-chloro-2′-methyl-3′-(1-methyl-2-oxo-5-(pyrrolidin-1-ylmethyl)-1,2-dihydropyridine-3-carboxamido)biphenyl-3-yl)-1,5-dimethyl-4,5,6,7-tetrahydro-1H-imidazo[4,5-c]pyridine-2-carboxamide] | ≤ 10

The remaining lines, values ahead:

Row | IC50 [nM] | Structure (SMILES)
13 | ≤ 10 | Cc1c(NC(=O)c2nc3c(n2C)CCN(CC(=O)O)C3)cccc1-c1cccc(NC(=O)c2nc3c(n2C)CCN(C)C3)c1Cl [Example 33, 2-(2-(2′-chloro-3′-(1,5-dimethyl-4,5,6,7-tetrahydro-1H-imidazo[4,5-c]pyridine-2-carboxamido)-2-methylbiphenyl-3-ylcarbamoyl)-1-methyl-6,7-dihydro-1H-imidazo[4,5-c]pyridin-5(4H)-yl)acetic Acid]
14 | ≤ 10 | CC(=O)N1CCC(N2CCc3c(nc(C(=O)Nc4cccc(-c5cccc(NC(=O)c6nc7c(n6C)CCN(C)C7)c5Cl)c4C)n3C)C2)CC1 [Example 34, 5-(1-acetylpiperidin-4-yl)-N-(2′-chloro-3′-(1,5-dimethyl-4,5,6,7-tetrahydro-1H-imidazo[4,5-c]pyridine-2-carboxamido)-2-methylbiphenyl-3-yl)-1-methyl-4,5,6,7-tetrahydro-1H-imidazo[4,5-c]pyridine-2-carboxamide]
15 | ≤ 10 | CN1CCc2c(nc(C(=O)Nc3cccc(-c4cccc(NC(=O)c5nc6c(n5C)CCN(CCO)C6)c4Cl)c3C#N)n2C)C1 [Example 38, N-(2-chloro-2′-cyano-3′-(1,5-dimethyl-4,5,6,7-tetrahydro-1H-imidazo[4,5-c]pyridine-2-carboxamido)biphenyl-3-yl)-5-(2-hydroxyethyl)-1-methyl-4,5,6,7-tetrahydro-1H-imidazo[4,5-c]pyridine-2-carboxamide]
16 | ≤ 10 | C[C@H](O)CN1CCc2c(nc(C(=O)Nc3cccc(-c4cccc(NC(=O)c5nc6c(n5C)CCN(C)C6)c4C#N)c3Cl)n2C)C1 [Example 39, (S)—N-(2-chloro-2′-cyano-3′-(1,5-dimethyl-4,5,6,7-tetrahydro-1H-imidazo[4,5-c]pyridine-2-carboxamido)biphenyl-3-yl)-5-(2-hydroxypropyl)-1-methyl-4,5,6,7-tetrahydro-1H-imidazo[4,5-c]pyridine-2-carboxamide]
17 | ≤ 10 | Cc1c(NC(=O)c2nc3c(n2C)CCN(C[C@H](C)O)C3)cccc1-c1cccc(NC(=O)c2nc3c(n2C)CCN(C2CCN(S(C)(=O)=O)CC2)C3)c1Cl [Example 43, (S)—N-(2′-chloro-2-methyl-3′-(1-methyl-5-(1-(methylsulfonyl)piperidin-4-yl)-4,5,6,7-tetrahydro-1H-imidazo[4,5-c]pyridine-2-carboxamido)biphenyl-3-yl)-5-(2-hydroxypropyl)-1-methyl-4,5,6,7-tetrahydro-1H-imidazo[4,5-c]pyridine-2-carboxamide]
18 | ≤ 10 | Cc1c(NC(=O)c2nc3c(n2C)CCN(C[C@H](C)O)C3)cccc1-c1cccc(NC(=O)c2nc3c(n2C)CCN(CC2CC2)C3)c1Cl [Example 46, (S)—N-(2-chloro-3′-(5-(2-hydroxypropyl)-1-methyl-4,5,6,7-tetrahydro-1H-imidazo[4,5-c]pyridine-2-carboxamido)-2′-methylbiphenyl-3-yl)-5-(cyclopropylmethyl)-1-methyl-4,5,6,7-tetrahydro-1H-imidazo[4,5-c]pyridine-2-carboxamide]
19 | ≤ 10 | Cc1c(NC(=O)c2cc(CN3CC[C@@H](O)C3)cn(C)c2=O)cccc1-c1cccc(NC(=O)c2nc3c(n2C)CCN(C)C3)c1Cl [Example 48, (R)—N-(2-chloro-3′-(5-((3-hydroxypyrrolidin-1-yl)methyl)-1-methyl-2-oxo-1,2-dihydropyridine-3-carboxamido)-2′-methylbiphenyl-3-yl)-1,5-dimethyl-4,5,6,7-tetrahydro-1H-imidazo[4,5-c]pyridine-2-carboxamide]
20 | ≤ 10 | Cc1c(NC(=O)c2cc(CN3CC[C@@H](O)C3)cn(C)c2=O)cccc1-c1cccc(NC(=O)c2nc3c(n2C)CCN(C[C@H](C)O)C3)c1Cl [Example 51, N-(2-chloro-3′-(5-(((R)-3-hydroxypyrrolidin-1-yl)methyl)-1-methyl-2-oxo-1,2-dihydropyridine-3-carboxamido)-2′-methylbiphenyl-3-yl)-5-((S)-2-hydroxypropyl)-1-methyl-4,5,6,7-tetrahydro-1H-imidazo[4,5-c]pyridine-2-carboxamide]
